Results as given in article PMC12058161, “The plant matrix of Artemisia annua L. for the treatment of malaria: Pharmacodynamic and pharmacokinetic studies” (PLOS One, 2025).
Values joined by “and” are separate entries in the source; they are usually repeats but may differ in a detail not shown here. Identical values can stand only once.

Assays:
Caco-2 cells = assay: Cytotoxicity in Caco-2 cells, CCK-8 assay; type: cell-based, human; details: for Cell survival rate%: mean; for cck-8 mean (survival fraction): mean of 6
Experimental: Caco-2 cells were cultured in 96-well plates for 48 h at a seeding density of 5.0 × 10^3 cells/well before the addition of drugs. […] The final concentration of DMSO was 0.05% (v/v). Experiments were initiated by replacing the culture medium in each well with 100 μL of sample solutions at 37°C in the CO2 incubator. After 48 h of incubation, the medium was removed and 10 μL of CCK-8 reagent in the serum-free medium was added to each well. The plates were then incubated at 37°C for another 2 h. At the end of the incubation period, the plates were quantified by reading the absorbance at 450 nm on a micro-plate multi-detection instrument, SpectraMax iD3 with SoftMax® Pro (Molecular Devices Corporation Sunnyvale, CA, USA). The percentage of cell viability was calculated based on the absorbance measured relative to the absorbance of cells exposed to the negative control.

[1] = Stability of the five compounds in SD rat plasma (QC samples, UHPLC-ESI-MS/MS); type: in vitro ADME; details: for 3 freeze-thaw cycles mean ± SD / 7 days at -80°C mean ± SD / Room temperature 24h mean ± SD: SD rat plasma QC sample; for stability, Accuracy (measured versus nominal concentration) / stability, mean ± SD (measured concentration): SD rat plasma, n=5
[2] = male, Sprague Dawley, rat, in vivo, po, 352 mg/kg
Experimental: (§1) Blood samples were centrifuged at 3500 rpm for 5 min at 4°C. All plasma samples were then stored at -80°C until analysis.
(§2) All samples were stored in a refrigerator at -80°C and thawed at room temperature before processing. A 50 μL aliquot of plasma was added with 5 μL of the standard solution (or acetonitrile) and 100 μL of internal standard solution in turn, vortexed and mixed, then sonicated for 3 min, centrifuged at 14000 rpm for 10 min at low temperature. The supernatant was transferred to an autosampler vial and analyzed by UHPLC-ESI-MS/MS.
(§3) The mobile phase consisted of 0.1% formic acid solution (A) and acetonitrile (B).
(§4) The ESI ionization source was used and detected in MRM mode.
(§5) All data were presented as mean ± SD. Pharmacokinetic parameters including half-life (t1/2), maximum plasma time (Tmax) and concentration (Cmax), area under concentration-time curve (AUC0-t and AUC0-∞), clearance (CL), steady-state volume of distribution (Vz), and mean residence time (MRT) were analyzed by non-compartmental method using DAS Version 2.0 (Chinese Pharmacological Society, Beijing, China). […] The data were analyzed by Student’s t-test for two groups and one-way analysis of variance for multiple groups; p < 0.05 was considered statistically significant.

in vivo = details: male, Sprague Dawley, rat, po, 352 mg/kg
Experimental: as §1, §2, §3, §4, §5

[3] = Caco-2, concentration 10 μmol/L
[4] = Caco-2, concentration 20 μmol/L
[5] = Caco-2, concentration 40 μmol/L
[6] = Caco-2, concentration 80 μmol/L
[7] = nominal 20 ng/mL, 3 freeze-thaw cycles
[8] = nominal 20 ng/mL, 7 days at -80°C
[9] = nominal 1000 ng/mL, 3 freeze-thaw cycles
[10] = nominal 1000 ng/mL, 7 days at -80°C
[11] = nominal 5000 ng/mL, 3 freeze-thaw cycles
[12] = nominal 5000 ng/mL, 7 days at -80°C
[13] = nominal 20 ng/mL, Room temperature 24h
[14] = nominal 1000 ng/mL, Room temperature 24h
[15] = nominal 5000 ng/mL, Room temperature 24h

SMILES: C[C@@H]1CC[C@H]2[C@@H](C)C(=O)O[C@@H]3O[C@@]4(C)CC[C@@H]1[C@]32O4 [DEART, Deoxyartemisinin]
- Cell survival rate%, single replicate (Caco-2 cells; Caco-2, 5μmol/L): 87.61% and 87.6% and 80.17% and 81.51% and 81.61% and 87.86%
- Cell survival rate%, single replicate (Caco-2 cells; Caco-2, 10μmol/L): 81.2% and 82.86% and 82.71% and 83.82% and 87.89% and 87.9%
- Cell survival rate%, single replicate (Caco-2 cells; Caco-2, 20μmol/L): 86.78% and 81.42% and 81.32% and 82.7% and 86.07% and 80.23%
- Cell survival rate%, single replicate (Caco-2 cells; Caco-2, 40μmol/L): 83.23% and 82.76% and 82.72% and 82.4% and 81.01% (2×)
- Cell survival rate%, single replicate (Caco-2 cells; Caco-2, 80μmol/L): 79.21% and 80.38% and 82.01% and 81.79% and 85.15% and 82.39%
- cck-8 cell survival as fraction, single replicate (Caco-2 cells; Caco-2, concentration 5 μmol/L): 0.8761 and 0.876 and 0.8017 and 0.8151 and 0.8161 and 0.8786
- Cell survival rate% (Caco-2 cells; Caco-2, concentration 5 μmol/L): 84.39%
- cck-8 mean (survival fraction) (Caco-2 cells; Caco-2, concentration 5 μmol/L): 0.84
- cck-8 cell survival as fraction, single replicate (Caco-2 cells; [3]): 0.812 and 0.8286 and 0.8271 and 0.8382 and 0.8789 and 0.879
- Cell survival rate% (Caco-2 cells; [3]): 84.40%
- cck-8 mean (survival fraction) (Caco-2 cells; [3]): 0.84
- cck-8 cell survival as fraction, single replicate (Caco-2 cells; [4]): 0.8678 and 0.8142 and 0.8132 and 0.827 and 0.8607 and 0.8023
- Cell survival rate% (Caco-2 cells; [4]): 83.09%
- cck-8 mean (survival fraction) (Caco-2 cells; [4]): 0.83
- cck-8 cell survival as fraction, single replicate (Caco-2 cells; [5]): 0.8323 and 0.8276 and 0.8272 and 0.824 and 0.8101
- Cell survival rate% (Caco-2 cells; [5]): 82.19%
- cck-8 mean (survival fraction) (Caco-2 cells; [5]): 0.82
- cck-8 cell survival as fraction, single replicate (Caco-2 cells; [6]): 0.7921 and 0.8038 and 0.8201 and 0.8179 and 0.8515 and 0.8239
- Cell survival rate% (Caco-2 cells; [6]): 81.82%
- cck-8 mean (survival fraction) (Caco-2 cells; [6]): 0.82
- Stability in plasma, measured concentration (mean ± SD) ([1]; 3 freeze-thaw cycles, QC concentration 20 ng/mL): 21.4 ± 1.03 ng/mL
- Stability in plasma, measured concentration (mean ± SD) ([1]; 3 freeze-thaw cycles, QC concentration 1000 ng/mL): 1069 ± 21.8 ng/mL
- Stability in plasma, measured concentration (mean ± SD) ([1]; 3 freeze-thaw cycles, QC concentration 5000 ng/mL): 4765 ± 110 ng/mL
- Stability in plasma, measured concentration (mean ± SD) ([1]; 7 days at -80°C, QC concentration 20 ng/mL): 21.1 ± 1.73 ng/mL
- Stability in plasma, measured concentration (mean ± SD) ([1]; 7 days at -80°C, QC concentration 1000 ng/mL): 1069 ± 21.6 ng/mL
- Stability in plasma, measured concentration (mean ± SD) ([1]; 7 days at -80°C, QC concentration 5000 ng/mL): 4705 ± 267 ng/mL
- Stability, measured concentration, mean ± SD ([1]; QC sample 20 ng/mL, 3 freeze-thaw cycles): 21.4 ± 1.03 ng/mL
- Stability, measured concentration, mean ± SD ([1]; QC sample 20 ng/mL, 7 days at -80°C): 21.1 ± 1.73 ng/mL
- Stability, measured concentration, mean ± SD ([1]; QC sample 20 ng/mL, Room temperature 24h): 21.6 ± 0.78 ng/mL
- Stability, measured concentration, mean ± SD ([1]; QC sample 1000 ng/mL, 3 freeze-thaw cycles): 1069 ± 21.8 ng/mL
- Stability, measured concentration, mean ± SD ([1]; QC sample 1000 ng/mL, 7 days at -80°C): 1069 ± 21.6 ng/mL
- Stability, measured concentration, mean ± SD ([1]; QC sample 1000 ng/mL, Room temperature 24h): 1093 ± 39.5 ng/mL
- Stability, measured concentration, mean ± SD ([1]; QC sample 5000 ng/mL, 3 freeze-thaw cycles): 4765 ± 110 ng/mL
- Stability, measured concentration, mean ± SD ([1]; QC sample 5000 ng/mL, 7 days at -80°C): 4705 ± 267 ng/mL
- Stability, measured concentration, mean ± SD ([1]; QC sample 5000 ng/mL, Room temperature 24h): 5205 ± 494 ng/mL
- Stability in plasma, measured concentration (mean ± SD) ([1]; Room temperature 24h, QC concentration 20 ng/mL): 21.6 ± 0.78 ng/mL
- Stability in plasma, measured concentration (mean ± SD) ([1]; Room temperature 24h, QC concentration 1000 ng/mL): 1093 ± 39.5 ng/mL
- Stability in plasma, measured concentration (mean ± SD) ([1]; Room temperature 24h, QC concentration 5000 ng/mL): 5205 ± 494 ng/mL
- 3 freeze-thaw cycles mean ± SD [1, 7]: 21.4 ± 1.03 ng/mL and 21.3622 ng/mL
- 7 days at -80°C mean ± SD [1, 8]: 21.1 ± 1.73 ng/mL and 21.1491 ng/mL
- Room temperature 24h mean ± SD ([1]; nominal 20 ng/mL): 21.6 ± 0.78 ng/mL and 21.6437 ng/mL
- 3 freeze-thaw cycles mean ± SD [1, 9]: 1069 ± 21.8 ng/mL and 1069.41 ng/mL
- 7 days at -80°C mean ± SD [1, 10]: 1069 ± 21.6 ng/mL and 1068.61 ng/mL
- Room temperature 24h mean ± SD ([1]; nominal 1000 ng/mL): 1093 ng/mL and 1093 ± 39.5 ng/mL
- 3 freeze-thaw cycles mean ± SD [1, 11]: 4765 ± 110 ng/mL and 4765.19 ng/mL
- 7 days at -80°C mean ± SD [1, 12]: 4705 ± 267 ng/mL and 4704.92 ng/mL
- Room temperature 24h mean ± SD ([1]; nominal 5000 ng/mL): 5205.17 ng/mL and 5205 ± 494 ng/mL
- stability, Accuracy (measured versus nominal concentration) [1, 7]: 106.81%
- stability, mean ± SD (measured concentration) [1, 7]: 21.4 ± 1.03 ng/mL
- stability, Accuracy (measured versus nominal concentration) [1, 8]: 105.75%
- stability, mean ± SD (measured concentration) [1, 8]: 21.1 ± 1.73 ng/mL
- stability, Accuracy (measured versus nominal concentration) [1, 13]: 108.22%
- stability, mean ± SD (measured concentration) [1, 13]: 21.6 ± 0.78 ng/mL
- stability, Accuracy (measured versus nominal concentration) [1, 9]: 106.94%
- stability, mean ± SD (measured concentration) [1, 9]: 1069 ± 21.8 ng/mL
- stability, Accuracy (measured versus nominal concentration) [1, 10]: 106.86%
- stability, mean ± SD (measured concentration) [1, 10]: 1069 ± 21.6 ng/mL
- stability, Accuracy (measured versus nominal concentration) [1, 14]: 109.30%
- stability, mean ± SD (measured concentration) [1, 14]: 1093 ± 39.5 ng/mL
- stability, Accuracy (measured versus nominal concentration) [1, 11]: 95.30%
- stability, mean ± SD (measured concentration) [1, 11]: 4765 ± 110 ng/mL
- stability, Accuracy (measured versus nominal concentration) [1, 12]: 94.10%
- stability, mean ± SD (measured concentration) [1, 12]: 4705 ± 267 ng/mL
- stability, Accuracy (measured versus nominal concentration) [1, 15]: 104.10%
- stability, mean ± SD (measured concentration) [1, 15]: 5205 ± 494 ng/mL
- CL [2]: 0.024 ± 0.003 L/h
- Vz [2]: 0.135 ± 0.049 L
- AUC(0-inf) (in vivo): 848 ± 111 ng·h/mL
- AUC(0-t) (in vivo): 750 ± 114 ng·h/mL
- Cmax (in vivo; Cmax): 143 ± 37.3 ng/mL
- MRT last (in vivo; MRT(0-t)): 4.04 ± 0.427 h
- MRT inf (in vivo; MRT(0-∞)): 6.12 ± 1.34 h
- half-life (in vivo; t1/2): 3.94 ± 1.57 h
